{
  "source": "patent US20220110902A1",
  "about": "“Methods of treating amyloid-beta peptide diseases” (Ecole Polytechnique Federale de Lausanne, priority 2016, published 2022)",
  "key": {"[1]": {"system": "GMC101 worms", "assay": "Transcript analysis of the MSR and other stress pathways in GMC101 worms", "format": "in vivo, C. elegans", "conditions": "for UPR^er and HSR gene transcripts: AZD 0.3 μM; for MSR transcripts (UPR^mt, mitophagy and respiration genes): AZD 300 nM", "description": "C. elegans: A total of ˜3000 worms per condition, divided in 3 biological replicates, was recovered in M9 buffer from NGM plates and lysed in the TriPure RNA reagent. Each experiment was repeated twice. Total RNA was transcribed to cDNA using QuantiTect Reverse Transcription Kit (Qiagen). Expression of selected genes was analyzed using the LightCycler480 system (Roche) and LightCycler® 480 SYBR Green I Master reagent (Roche). For C. elegans, 2 housekeeping genes were used to normalize the expression data, namely actin (act-1) and peroxisomal membrane protein 3 (pmp-3).\natfs-1p::atfs-1 expression vector was created by amplifying 1488 bp sequence upstream from the transcription start site of atfs-1 coding region by using worm genomic DNA for the promoter region. The PCR product was digested with PciI and AgeI and ligated into the pPD30.38 expression vector containing gfp coding sequence cloned between inserted AgeI and NotI restriction sites. The atfs-1 coding sequence (CDS) was instead amplified using C. elegans cDNA, and the PCR product was inserted into pPD30.38 downstream of the promoter region, between AgeI and NheI restriction sites. The correctness of the atfs-1p::atfs-1 construct was assessed by sequencing with the indicated pPD30.38 and atfs-1 seq. primers. Two independent GMC101 lines (AUW9 and AUW10), and one CL2122 strain (AUW11) carrying atfs-1p::atfs-1 transgene as extrachromosomal array were analyzed in the study. Injection marker myo-2p::gfp was cloned by amplifying 1179 bp sequence upstream from the transcription start site of myo-2 coding region by using C. elegans genomic DNA. The PCR product was digested with PciI and AgeI and ligated into the pPD30.38 expression vector containing atfs-1::gfp to replace atfs-1 promoter sequence between PciI and AgeI restriction sites. All transgenic strains were created by using microinjection. For the generation of the GMC101 lines AUW12 and AUW13, GMC101 males were generated after exposure of L4 worms to 30° C. for 3 h, and let mate with L4 from clk-1 or nuo-6 mutant strains. The derived progeny was selected for homozygosis of the GMC101 intestinal GFP marker for few generations, and the homozygosis of the clk-1 or nuo-6 mutant alleles verified by amplifying and sequencing a 500 bp region of the worms genomic DNA encompassing the desired mutation. Bacterial feeding RNAi experiments were carried out as described. Clones used were atfs-1 (ZC376.7), ubl-5 (F46F11.4), mrps-5 (E02A10.1), dct-1 (C14F5.1), daf-16 (R13H8.1), sir-2.1 (R11A8.4), xbp-1 (R74.3) and hsf-1 (Y53C10A.12). Clones were purchased from GeneService and verified by sequencing. The novel atfs-1 RNAi construct (atfs-1 #2) used in this study was generated by amplifying 1400 bp of the atfs-1 genomic DNA sequence, starting from the last exon of atfs-1. Gateway cloning (Thermo Scientfic) was used to insert the PCR product into the gateway vector pL4440gtwy (Addgene #11344), and verified by sequencing. atfs-1 knockdown was verified by qPCR for all the atfs-1 RNAi constructs used herein. For phenotypic studies (see below), worms at the L4 larval stage were allowed to reach adulthood and lay eggs on the treatment plates. The deriving F1 worms were shifted from 20° C. to 25° C. at the L4 stage to induce amyloid accumulation and paralysis, and phenotypes assessed over time as indicated. For double RNAi experiments, we used a combination of atfs-1 with mrps-5 RNAi constructs as indicated in the text, with 80% amount of atfs-1 and 20% mrps-5 RNAi. For mRNA analysis, synchronized L1 worms were exposed to the treatment plates, and shifted from 20° C. to 25° C. when reaching the L4 stage. After 24 hours incubation at 25° C., corresponding to day 1 of adulthood, they were harvested in M9 for analysis.\nDoxycycline was obtained from Sigma-Aldrich and dissolved in water. For experiments, a final concentration of 15 μg/mL was used. Olaparib (AZD2281) was dissolved in DMSO to experimental concentrations of 300 nM. […]"}, "[2]": {"system": "GMC101 worms", "assay": "Worm phenotypic assays in GMC101: mobility, paralysis and death score", "format": "in vivo, C. elegans", "conditions": "for fitness/healthspan and lifespan (mobility, paralysis, death): GMC101, mobility from day 1 of adulthood, paralysis and death at day 8, dox 15 μg/mL, AZD 300 nM", "description": "Doxycycline was obtained from Sigma-Aldrich and dissolved in water. For experiments, a final concentration of 15 μg/mL was used. Olaparib (AZD2281) was dissolved in DMSO to experimental concentrations of 300 nM. Nicotinamide Riboside triflate (NR) was custom synthesized by Novalix (www.novalix-pharma.com/) and dissolved in water, and used at a final concentration of 1 mM. Compounds were added just before pouring the plates. For phenotyping experiments, parental F0 L4 worms were allowed to reach adulthood and lay eggs on the treatment plates. The deriving F1 worms were therefore exposed to compounds during the full life from eggs until death. For RNA analysis experiments, synchronized L1 worms were exposed to the compounds until harvest. To ensure a permanent exposure to the compound, plates were changed twice a week.\nMobility: C. elegans movement analysis was performed as described, starting from day 1 of adulthood, using the Movement Tracker software. The experiments were repeated at least twice.\nParalysis and death score: 5 L4 worms per condition were allowed to reach adulthood and lay eggs on the treatment plates. 45 to 60 deriving F1 worms per condition were manually scored for paralysis after poking, as already described. Worms that were unable to respond to any, repeated stimulation, were scored as dead. Results are representative of the data obtained in at least three independent experiments.\n(§1) During the assays, animals were exposed to Myriocin (dissolved in DMSO) from the egg stage on plates seeded with live HT115 E. coli bacteria. Control plates seeded with the same bacteria were prepared with the corresponding concentrations of DMSO. The day of the experiment (day 1 of adulthood, 3 days after hatching), the GMC101 population was shifted to 25° C. in order to induce the amyloid deposition in the body wall muscle. ˜1000 worms were used for western blotting assays.\nC. elegans movement analysis was performed as described (Mouchiroud et al., 2016), using the Movement Tracker software. ˜50 adult worms were used per condition for movement assays.\nTo score for paralysis and death, 50 worms per condition were manually scored after poking as described (McCool et al., 2012; Florez-McClure et al., 2007). Worms that were unable to respond to repeated stimulation were scored as dead.\nas §1, with “the compound UA” for “Myriocin (dissolved in DMSO)”, “from” for “from the”, “DMSO (0.1%).” for “DMSO.”, “˜50 adult” for “˜1000”, “per conditions.” for “for western blotting assays.”\nC. elegans movement analysis was performed as described in (Mouchiroud et al., 2016), using the Movement Tracker software within a period of 4 days."}, "[3]": {"conditions": "GMC101, day 1 of adulthood, dox 15 μg/mL, NR 1 mM"}},
  "note": "“Also recorded” adds a separate entry of the source.",
  "data": [
    {"compound": "O=C(c1cc(Cc2n[nH]c(=O)c3ccccc23)ccc1F)N1CCN(C(=O)C2CC2)CC1", "note": "[AZD, Olaparib, reference compound]", "values": [
      {"measurement": "UPR^er and HSR gene transcripts", "setting": "[1]; [3]", "value": "only a minimal impact"},
      {"measurement": "MSR transcripts (UPR^mt, mitophagy and respiration genes)", "setting": "[1]; [3]", "value": "induced the MSR"},
      {"measurement": "fitness/healthspan and lifespan (mobility, paralysis, death)", "setting": "[2]; NR 1 mM", "value": "improved healthspan and lifespan"}
    ]},
    {"compound": "CCCCCCC(=O)CCCCCC/C=C/C[C@@H](O)[C@H](O)[C@@](N)(CO)C(=O)O", "note": "[Myriocin, (E,2S,3R,4R)-2-amino-3,4-dihydroxy-2-(hydroxymethyl)-14-oxoicos-6-enoic acid]", "values": [
      {"measurement": "oxidative stress and mitochondrial stress response genes (sod-2, sod-4, atfs-1, skn-1)", "setting": "[1]; GMC101, myriocin 5 uM and 10 uM", "value": "induction"},
      {"measurement": "UPR^mt and mitophagy genes (hsp-6, hsp-60, dct-1, pdr-1)", "setting": "[1]; GMC101, myriocin treatment", "value": "upregulation"},
      {"measurement": "paralysis and death (survival)", "setting": "[2]; GMC101, day 4 of adulthood, Myriocin 10 uM", "value": "decreased both paralysis and death; also recorded: improves the paralysis score and survival"},
      {"measurement": "spontaneous movement (mobility)", "setting": "[2]; GMC101, period of 4 days, Myriocin 10 uM", "value": "increased the mobility; also recorded: increase in spontaneous movement"}
    ]},
    {"compound": "NC(=O)c1ccc[n+]([C@@H]2O[C@H](CO)[C@@H](O)[C@H]2O)c1", "note": "[NR, Nicotinamide Riboside triflate]", "values": [
      {"measurement": "daf-16 and daf-16 target gene transcripts", "setting": "[1]; [3]", "value": "did not affect"},
      {"measurement": "UPR^er and HSR gene transcripts", "setting": "[1]; [3]", "value": "only a minimal impact"},
      {"measurement": "MSR transcripts (UPR^mt, mitophagy and respiration genes)", "setting": "[1]; [3]", "value": "induced the MSR"},
      {"measurement": "fitness/healthspan and lifespan (mobility, paralysis, death)", "setting": "[2]; NR 1 mM", "value": "improved healthspan and lifespan"},
      {"measurement": "health- and life-span upon sir-2.1 RNAi", "setting": "[2]; GMC101 fed with sir-2.1 RNAi, NR 1 mM", "value": "still significantly rescued health- and life-span"},
      {"measurement": "dependence of motility and Aβ clearance benefits on atfs-1", "setting": "[2]; GMC101 upon atfs-1 RNAi feeding", "value": "required"},
      {"measurement": "dependence of health-, lifespan and proteostasis benefits on dct-1", "setting": "[2]; GMC101 upon dct-1 RNAi feeding", "value": "required"}
    ]}
  ]
}
